Experimental data from the NIST ThermoML archive (doi:10.1016/j.jct.2015.09.004).

Columns and labels:
[1] = for vapor or sublimation pressure: Closed cell (Static) method; for Normal melting temperature: DTA
[2] = Molar enthalpy of transition or fusion; conditions: Crystal; DSC

CC(=O)c1ccc(F)cc1 [1-(4-fluorophenyl)ethanone]
[1]
Conditions | vapor or sublimation pressure [kPa]
255.13 K, Metastable liquid | 0.00086
256.87 K, Metastable liquid | 0.00104
258.79 K, Metastable liquid | 0.00128
260.76 K, Metastable liquid | 0.00157
262.72 K, Metastable liquid | 0.00193
264.7 K, Metastable liquid | 0.00233
266.63 K, Metastable liquid | 0.00285
268.62 K, Metastable liquid | 0.00348
270.62 K, Liquid | 0.00417
272.54 K, Liquid | 0.00501
274.51 K, Liquid | 0.00603
276.49 K, Liquid | 0.00725
278.49 K, Liquid | 0.00865
280.5 K, Liquid | 0.01035
282.42 K, Liquid | 0.01227
284.44 K, Liquid | 0.01455
286.42 K, Liquid | 0.01723
288.39 K, Liquid | 0.02022
290.38 K, Liquid | 0.02379
292.34 K, Liquid | 0.02795
294.31 K, Liquid | 0.03279
296.34 K, Liquid | 0.03807
298.27 K, Liquid | 0.04465
300.3 K, Liquid | 0.05171
302.24 K, Liquid | 0.06005
304.2 K, Liquid | 0.06895
306.15 K, Liquid | 0.07985
308.16 K, Liquid | 0.09146
310.15 K, Liquid | 0.1056

Conditions | Normal melting temperature [°C]
[1], Crystal | -4

Conditions | Molar enthalpy of transition or fusion [kcal/mol]
[2] | 3.39

CC(=O)c1ccc(Br)cc1 [4'-bromoacetophenone]
[1]
Conditions | vapor or sublimation pressure [kPa]
295.3 K, Crystal | 0.00115
297.26 K, Crystal | 0.00142
299.2 K, Crystal | 0.00175
301.22 K, Crystal | 0.00219
303.17 K, Crystal | 0.00269
305.12 K, Crystal | 0.00341
305.14 K, Metastable liquid | 0.00501
307.11 K, Crystal | 0.00418
307.13 K, Metastable liquid | 0.00591
309.13 K, Crystal | 0.00512
309.14 K, Metastable liquid | 0.00699
311.05 K, Crystal | 0.00632
311.08 K, Metastable liquid | 0.0082
312.97 K, Metastable liquid | 0.00953
313.08 K, Crystal | 0.00777
315.05 K, Crystal | 0.00949
315.06 K, Metastable liquid | 0.01125
317.04 K, Crystal | 0.01155
317.08 K, Metastable liquid | 0.01318
319.04 K, Crystal | 0.0141
319.06 K, Metastable liquid | 0.01542
321.03 K, Metastable liquid | 0.01778
322.97 K, Metastable liquid | 0.02065
324.98 K, Metastable liquid | 0.02389
327.07 K, Liquid | 0.02782
328.92 K, Liquid | 0.03179
331.01 K, Liquid | 0.03679
333 K, Liquid | 0.04238
334.94 K, Liquid | 0.04849
336.95 K, Liquid | 0.05561
338.92 K, Liquid | 0.06344
340.91 K, Liquid | 0.07228
342.92 K, Liquid | 0.08249
344.85 K, Liquid | 0.09385
346.83 K, Liquid | 0.1056
348.79 K, Liquid | 0.1197
350.66 K, Liquid | 0.1346
352.73 K, Liquid | 0.1529
354.58 K, Liquid | 0.1698
356.66 K, Liquid | 0.1927
358.51 K, Liquid | 0.2158
360.62 K, Liquid | 0.2427
362.46 K, Liquid | 0.27
364.54 K, Liquid | 0.3031
366.57 K, Liquid | 0.3388
368.54 K, Liquid | 0.3774
370.53 K, Liquid | 0.4201
372.5 K, Liquid | 0.4659
374.46 K, Liquid | 0.5142
376.43 K, Liquid | 0.5712
378.39 K, Liquid | 0.6312

Conditions | Normal melting temperature [°C]
[1], Crystal | 51.1

Conditions | Molar enthalpy of transition or fusion [kcal/mol]
[2] | 4.57

CC(=O)c1ccc(Cl)cc1 [4'-chloroacetophenone]
[1]
Conditions | vapor or sublimation pressure [kPa]
271.56 K, Metastable liquid | 0.00065
273.59 K, Metastable liquid | 0.00081
275.52 K, Metastable liquid | 0.00098
277.47 K, Metastable liquid | 0.00118
279.48 K, Metastable liquid | 0.00144
281.51 K, Metastable liquid | 0.00176
283.42 K, Metastable liquid | 0.0021
285.45 K, Metastable liquid | 0.00256
287.39 K, Metastable liquid | 0.00305
289.34 K, Metastable liquid | 0.00364
291.32 K, Liquid | 0.00437
293.32 K, Liquid | 0.00519
295.29 K, Liquid | 0.00616
297.26 K, Liquid | 0.00729
299.24 K, Liquid | 0.00863
301.19 K, Liquid | 0.01012
303.21 K, Liquid | 0.01198
305.16 K, Liquid | 0.01396
307.18 K, Liquid | 0.01629
309.12 K, Liquid | 0.01902
311.1 K, Liquid | 0.02236
313.1 K, Liquid | 0.02596
315.07 K, Liquid | 0.03015
317.04 K, Liquid | 0.03486
319.07 K, Liquid | 0.04049
321 K, Liquid | 0.04613
323.09 K, Liquid | 0.05334
325.1 K, Liquid | 0.0612
327.08 K, Liquid | 0.06999
329.05 K, Liquid | 0.07991
331.04 K, Liquid | 0.09133
333 K, Liquid | 0.1037
334.98 K, Liquid | 0.1174

Conditions | Normal melting temperature [°C]
[1], Crystal | 17.2

Conditions | Molar enthalpy of transition or fusion [kcal/mol]
[2] | 3.66

CC(=O)c1ccc(I)cc1 [para-iodoacetophenone]
[1]
Conditions | vapor or sublimation pressure [kPa]
313.07 K, Crystal | 0.00086
315.1 K, Crystal | 0.00108
317.07 K, Crystal | 0.00134
319.04 K, Crystal | 0.00166
321.02 K, Crystal | 0.00205
323.02 K, Crystal | 0.00253
325.06 K, Crystal | 0.00313
326.98 K, Crystal | 0.00382
329.06 K, Crystal | 0.00477
330.99 K, Crystal | 0.00578
333.01 K, Crystal | 0.0071
334.95 K, Crystal | 0.00856
336.96 K, Crystal | 0.01043
338.87 K, Crystal | 0.01256
340.91 K, Crystal | 0.01528
342.83 K, Crystal | 0.01834
344.76 K, Crystal | 0.02192
346.73 K, Crystal | 0.02634
348.73 K, Crystal | 0.03176
348.73 K, Metastable liquid | 0.03831
350.7 K, Metastable liquid | 0.04337
350.71 K, Crystal | 0.03795
352.69 K, Metastable liquid | 0.04939
352.75 K, Crystal | 0.04537
354.68 K, Metastable liquid | 0.05596
356.62 K, Metastable liquid | 0.06332
358.92 K, Liquid | 0.07293
360.65 K, Liquid | 0.08166
362.51 K, Liquid | 0.09128
364.59 K, Liquid | 0.1048
366.58 K, Liquid | 0.1171
368.51 K, Liquid | 0.131
370.52 K, Liquid | 0.1458
372.41 K, Liquid | 0.1634
374.48 K, Liquid | 0.1829
376.36 K, Liquid | 0.2045
378.41 K, Liquid | 0.2281
380.39 K, Liquid | 0.2553
382.37 K, Liquid | 0.2831
384.3 K, Liquid | 0.3146
386.31 K, Liquid | 0.3478
388.27 K, Liquid | 0.3882
389.83 K, Liquid | 0.42
392.22 K, Liquid | 0.4723
394.17 K, Liquid | 0.5188
396.15 K, Liquid | 0.5726
398.12 K, Liquid | 0.6279
399.98 K, Liquid | 0.6883
402.04 K, Liquid | 0.7599

Conditions | Normal melting temperature [°C]
[1], Crystal | 84.5

Conditions | Molar enthalpy of transition or fusion [kcal/mol]
[2] | 5.62
